Here are results for one molecule from paper PMC7826463, “Pamiparib dose escalation in Chinese patients with non‐mucinous high‐grade ovarian cancer or advanced triple‐negative breast cancer” (Cancer Medicine, 2020).

In series [1] the test system is patients with advanced solid tumors. As to conditions: cited from earlier work.
Series [2] concerns high-grade ovarian cancer (HGOC). In words: CA-125 response per Gynecologic Cancer Intergroup in patients with HGOC. Format: in vivo, human. The method, then:
Among eligible patients with HGOC, carcinoma antigen 125 (CA‐125) response rate per Gynecologic Cancer Intergroup was also assessed. Patients with HGOC had CA‐125 tested in a local laboratory at baseline, every 6 weeks in the 1st year, and then, every 12 weeks thereafter. CA‐125 responses must have been confirmed and maintained for at least 28 days. Germline and tBRCA1/2 mutations were analyzed as predictive biomarkers of antitumor activity and resistance to pamiparib. BRCA mutations were assessed using next‐generation sequencing, performed by BGI Genomics Co., Ltd, using the germline (gBRCA) or somatic (tBRCA) Hereditary Breast and Ovarian Cancer Test. Approximately 14 to 18 evaluable patients were expected to enroll in the phase 1 part of the study. The safety population included all patients who received ≥1 dose of pamiparib. The PK population included all patients for whom valid pamiparib PK parameters could be estimated. Antitumor activity per RECIST v1.1 was assessed in all evaluable patients. […] The population evaluable for CA‐125 response included patients in the safety population with baseline CA‐125 ≥2 x upper limit of normal.

Series [3] concerns non-mucinous high-grade ovarian cancer (HGOC). In words: Antitumor activity per RECIST v1.1 (best overall response, ORR, CBR, PFS) in patients with HGOC. Format: in vivo, human. Here is the method: Secondary objectives were assessment of PK parameters and antitumor activity. Blood samples for the PK analysis were collected at Cycle 1 on Days 1, 2, and 3. Pharmacokinetic sampling was performed at Cycle 1 on Day 1 (predose and at 0.5, 1, 2, 4, 6, 9, and 12 hours postdose), Day 2, Day 3, and Day 10 (predose and at 0.5, 1, 2, 4, 6, 9, and 12 hours postdose); then at Cycles 2 and 3 on Day 1 (predose and at 2 hours postdose). […] Tumor assessments were performed by the investigators at screening, every 6 weeks after the first dose of pamiparib in the 1st year, and every 12 weeks thereafter until progression, per RECIST v1.1. Patients completed the study at the time of their safety follow‐up visit; therefore, radiological assessment of disease progression was not performed after the safety follow‐up visit. Approximately 14 to 18 evaluable patients were expected to enroll in the phase 1 part of the study. The safety population included all patients who received ≥1 dose of pamiparib. The PK population included all patients for whom valid pamiparib PK parameters could be estimated. Antitumor activity per RECIST v1.1 was assessed in all evaluable patients. […] The population evaluable for CA‐125 response included patients in the safety population with baseline CA‐125 ≥2 x upper limit of normal. Descriptive statistics were used to summarize all study data. Continuous variables included the number of non‐missing observations, mean, standard deviation, median, minimum, and maximum. Categorical variables were summarized by their frequency and percentage. Progression‐free survival was estimated using the Kaplan–Meier method and the corresponding 95% confidence interval (CI) was constructed using Greenwood's formula. Standard PK parameters (i.e., area under the plasma concentration‐time curve [AUC] from time of drug administration; maximum plasma concentration [Cmax]; time to Cmax; elimination half‐life [t1/2]; apparent clearance; and apparent volume of distribution during terminal phase) were estimated and derived using standard non‐compartmental methods.

In series [4] the test system is advanced HGOC or TNBC. Kind of series: Progression-free survival, total safety population. The following applies: Total (N=15). Format: in vivo, human. The method, then: Secondary objectives were assessment of PK parameters and antitumor activity. Blood samples for the PK analysis were collected at Cycle 1 on Days 1, 2, and 3. Pharmacokinetic sampling was performed at Cycle 1 on Day 1 (predose and at 0.5, 1, 2, 4, 6, 9, and 12 hours postdose), Day 2, Day 3, and Day 10 (predose and at 0.5, 1, 2, 4, 6, 9, and 12 hours postdose); then at Cycles 2 and 3 on Day 1 (predose and at 2 hours postdose). […] Tumor assessments were performed by the investigators at screening, every 6 weeks after the first dose of pamiparib in the 1st year, and every 12 weeks thereafter until progression, per RECIST v1.1. Patients completed the study at the time of their safety follow‐up visit; therefore, radiological assessment of disease progression was not performed after the safety follow‐up visit. Descriptive statistics were used to summarize all study data. Continuous variables included the number of non‐missing observations, mean, standard deviation, median, minimum, and maximum. Categorical variables were summarized by their frequency and percentage. Progression‐free survival was estimated using the Kaplan–Meier method and the corresponding 95% confidence interval (CI) was constructed using Greenwood's formula. Standard PK parameters (i.e., area under the plasma concentration‐time curve [AUC] from time of drug administration; maximum plasma concentration [Cmax]; time to Cmax; elimination half‐life [t1/2]; apparent clearance; and apparent volume of distribution during terminal phase) were estimated and derived using standard non‐compartmental methods.

The mark [5] stands for this setting: HGOC (n = 8), RECIST efficacy-evaluable.
Where [6] appears, read: HGOC (n = 8), RECIST efficacy-evaluable, 20-60 mg BID.

The structures appear in SMILES notation. Where “and” joins values, the source holds several entries; their conditions need not be identical. Equal values may be shown once.

With `C[C@]12CCCN1CC1=NNC(=O)c3cc(F)cc4[nH]c2c1c34` [pamiparib, Pamiparib], the “Recommended phase 2 dose (RP2D)” value in series [1] (FIH study NCT02361723, PO) is reported as 60 mg BID. Moreover, in series [1] (FIH study NCT02361723), the “Linearity of pamiparib exposure” value is listed as “linear up to 80 mg BID” and the “Maximum tolerated dose (MTD)” value is 80 mg BID. Moreover, the CA-125 response rate in series [2] (HGOC (n=8), CA-125-evaluable population) is 2 (25.0) n (%). For the same molecule, the “Time to response (per CA-125 criteria), Median (range)” value in series [2] (HGOC, n 2 responders) is 1.45 (1.4–1.5) months. In series [3] (setting [5]), the “Clinical benefit rate (CR+PR+SD ≥24 weeks)” value is 62.5 % (95% CI) and 62.5 (24.5‐91.5) % (95% CI); the “Disease control rate (CR+PR+SD)” value is 100 % (95% CI) and 100.0 (63.1‐100) % (95% CI); the “Objective response rate (CR+PR)” value is 25.0 (3.2‐65.1) % (95% CI). Besides, in series [3] (setting [6]), the “Best overall response: Complete response” value is 0 n (%) and the “Best overall response: Progressive disease” value is 0 n (%). Besides, in series [3] (HGOC (n=9), Kaplan-Meier), the “Event-free rate at 3 months (95% CI)” value is recorded as 85.7 (33.41–97.86) %, the “Event-free rate at 6 months (95% CI)” value was 68.6 (21.28–91.21) % and the “Event-free rate at 9 months (95% CI)” value was 68.6 (21.28–91.21) %. The “Median PFS (95% CI)” value in series [3] (HGOC (n=9), Kaplan-Meier, NE, not estimable) is “NE (2.86–NE)”. Besides, in series [3] (HGOC (n=9), safety population), the “PFS Events” value was 2 (22.2) n (%). In addition, in series [3] (RECIST-evaluable HGOC (n = 8)), the “Confirmed PR, gBRCA WT patients” value was determined as 1 n and the “Confirmed PR, gBRCA mut patients” value was 1 n. Also, in series [3] (one patient with HGOC, 20 mg dose level, PR, treatment ongoing), the “Response duration at data cut-off” value was 27.7 months. In series [4] (Kaplan-Meier), the “Event-free rate at 3 months (95% CI)” value is reported as 50.0 (20.85–73.61) %, the “Event-free rate at 6 months (95% CI)” value is 40.0 (13.52–65.73) % and the “Event-free rate at 9 months (95% CI)” value was 40.0 (13.52–65.73) %. Besides, in series [4] (Kaplan-Meier, NE, not estimable), the “Median PFS (95% CI)” value is 4.2 (1.48–NE) months. Besides, in series [4] (safety population), the “PFS Events” value is listed as 7 (46.7) n (%) and the “PFS events: Disease progression” value is on record as 7 (46.7) n (%).
